Experimental data taken from paper PMC9695642, “Conservation of Importin α Function in Apicomplexans: Ivermectin and GW5074 Target Plasmodium falciparum Importin α and Inhibit Parasite Growth in Culture” (International Journal of Molecular Sciences, 2022).
Where “and” joins values, the source holds several entries; their conditions need not be identical. Equal values may be shown once. Read-outs that look alike come from different tables or passages of the source.

Tests used:
[1] = test system: P. falciparum 3D7 strain; test: P. falciparum growth inhibition, HRP2-based sandwich ELISA; format: cell-based, Plasmodium falciparum
From the text: To test the potential antimalarial action of GW5074, we compared the activity of GW5074 to ivermectin against the asexual stages of P. falciparum parasites, using an established HRP2-based (histidine-rich protein 2) ELISA [38, 39, 40]. The assay uses a sandwich ELISA to measure HRP2 levels as an indicator of parasite growth; the clinically prescribed drug dihydroartemisinin (DHA) was used as a positive control.
Figure 6 Ivermectin and GW5074 inhibit P. falciparum parasites in culture at low µM concentrations. P. falciparum cultures (0.25% parasitemia) were treated with increasing concentrations of the indicated compounds for 72 h, after which the HRP2-based sandwich ELISA was used to measure the HRP2 levels, determined by optical density. The results shown are from a single typical experiment performed in duplicate (SD shown), representative of a series of three independent experiments (see Table 5 for pooled data).
P. falciparum 3D7 strain was cultured and maintained in human red blood cells (RBCs) using RPMI (Roswell Park Memorial Institute) 1640 medium supplemented with 0.5% Albumax (GibcoTM, Waltham, MA, USA), 50 mg/L hypoxanthine (Sigma-Aldrich, St. Louis, MO, USA), 2 g/L D-glucose (Sigma-Aldrich, St. Louis, MO, USA), 2 g/L sodium bicarbonate (Sigma-Aldrich, St. Louis, MO, USA), and 56 mg/L of gentamicin (Abbott, Chicago, IL, USA) at 37 °C in 5% CO2 in a humidified incubator, according to the standard procedures. Cultures presynchronised using 5% D-sorbitol (Sigma-Aldrich, St. Louis, MO, USA) to obtain predominantly the ring stage of the P. falciparum life cycle were used for the growth assays, as previously. DHA (a gift from IPCA Laboratories, Mumbai, India) was used as a control. Growth assays in the absence and presence of inhibitors were performed using the HRP2 sandwich horseradish peroxidase-linked immunosorbent assay that measures HRP2 levels as an indicator of growth.

[2] = target: TgIMPα (Toxoplasma gondii, UniProt A0A125YID0); test: AlphaScreen inhibition of TgIMPα binding to T-ag-NLS-GFP
From the text: (§1) Inhibitors of mammalian IMPα function are of key interest as anti-infectious agents. One of the first described is the small molecule macrocyclic lactone ivermectin, produced by the bacterium Streptomyces avermitilis, that is approved by the US Food and Drug Administration for parasitic infections. […] Chemically distinct from ivermectin, GW5074 (3-(3,5-dibromo-4-hydroxybenzyliden)-5-iodo-1,3-dihydroindol-2-one) binds to mammalian IMPα with analogous structural effects on IMPα and inhibitory effects on NLS recognition/IMPβ1 binding by IMPα [24]. […] We set out to test the activity of these inhibitors with respect to NLS binding by PfIMPα and TgIMPα, with NLS binding by MmIMPα analysed in parallel (Figure 3; Table 3). As expected, ivermectin and GW5074 inhibited MmΔIBBIMPα-SV40 T-ag with IC50 values of 5–6 µM, consistent with published data. […] The results clearly indicate that chemical inhibitors known to target mammalian IMPα can inhibit apicomplexan IMPα, underlining the structural and functional conservation of IMPα from apicomplexans to mammalian systems.
(§2) Figure 3 Ivermectin and GW5074 inhibit IMPα-NLS interaction at low micromolar concentration. AlphaScreen technology was used to determine the IC50 for inhibition by ivermectin and GW5074 binding of IMPαs (5 nM) to NLS (30 nM). Data represent the mean ± SEM for quadruplet wells from a single experiment, from a series of 3 independent experiments (see Table 3 for pooled data).
(§3) PfIMPα, TgIMPα, MmIMPα, ΔIBBMmIMPα, and MmIMPβ1 GST fusion proteins were expressed and purified essentially as previously. His-tagged T-ag-NLS-GFP, TGS1-NLS-GFP, GCN5-NLS-GFP, PfIMPα, and TgIMPα proteins were all purified using Ni^2+-affinity chromatography, as previously. Biotinylation of GST-tagged proteins was carried out using the Sulfo-NHS-Biotin reagent (Pierce, Rockford, IL, USA), as described previously. The AlphaScreen binding assay was performed as previously.

[3] = target: TgIMPα:MmIMPβ1 (Toxoplasma gondii, UniProt A0A125YID0); test: AlphaScreen inhibition of TgIMPα binding to MmIMPβ1
From the text: (§4) As indicated, both ivermectin and GW5074 have been previously shown to inhibit interaction between mammalian IMPα and IMPβ1 [24, 32]. We tested their activity towards apicomplexan IMPα (Figure 4; Table 4). As previously observed, binding of MmIMPα:MmIMPβ1 was inhibited strongly by both agents, with IC50 values of c. […] Clearly, ivermectin and GW5074 are able to act on apicomplexan IMPα in analogous fashion to MmIMPα in terms of the ability to bind to IMPβ1, the results further underlining the structural and functional conservation of IMPα from apicomplexans to mammalian systems.
(§5) Figure 4 Ivermectin and GW5074 inhibit IMPα–IMPβ interaction. AlphaScreen technology was used to determine the IC50 for inhibition by ivermectin and GW5074-binding of IMPβ (30 nM) to IMPαs (30 nM). Data represent the mean ± SEM for quadruplet wells from a single experiment, from a series of three independent experiments (see Table 4 for pooled data).
as §3

[4] = target: T1, MmIMPα:MmIMPβ1 (Mus musculus, UniProt P52293); test: AlphaScreen inhibition of MmIMPα binding to MmIMPβ1
T1 construct: His; made in house
From the text: as §4, §5, §3

[5] = target: PfIMPα:MmIMPβ1 (Plasmodium falciparum, UniProt Q8IAW0); test: AlphaScreen inhibition of PfIMPα binding to MmIMPβ1
From the text: as §4, §5, §3

[6] = target: T2, MmΔIBBIMPα (Mus musculus, UniProt P52293); test: AlphaScreen inhibition of MmΔIBBIMPα binding to T-ag-NLS-GFP
T2 construct: GST; made in house
From the text: as §1, §2, §3

[7] = target: T3, PfIMPα (Plasmodium falciparum, UniProt Q8IAW0); test: Far-UV CD spectroscopy, α-helical content of PfIMPα with compound; format: binding; conditions: PfIMPα alone c. 63 % α-helical
Protocol: Previous analysis for MmIMPα using several biophysical approaches had established that the mechanism by which both ivermectin and GW5074 have an impact on NLS and IMPβ1 binding by MmIMPα is by direct binding to the ARM repeat domain of IMPα to perturb structural conformation. […] 63 % α-helical, compared to c. 70 % for MmIMPα (Figure 5b).
CD spectra were also analysed in the presence of increasing concentrations of ivermectin and GW5074, with both agents having a marked impact on the structure, especially at high concentrations (Figure 5a,b), consistent with the idea that both bind to the proteins directly to perturb structure. PfIMPα appeared to be particularly susceptible to both agents, with 30 µM GW5074 reducing α-helicity by more than a half (Figure 5a,b) to a residual value of 30%, which fell below 10% in the presence of 80 µM GW5074. […] 20% at 80 µM. The results, overall, indicate that both ivermectin and GW5074 can bind to and destabilise the structure of both PfIMPα and TgIMPα in analogous fashion to their known effects on mammalian IMPα, further underlining the conservation of structure and function between apicomplexan and mammalian IMPαs.
Figure 5 CD spectra for apicomplexan and mammalian IMPαs in the absence and presence of ivermectin and GW5074. CD spectra were collected for PfIMPα, TgIMPα, and MmIMPα in the absence or presence of 30 μM and 80 μM ivermectin and GW5074. (a) Spectra shown are from a single experiment, representative of two independent experiments for 30 μM concentration of ivermectin and GW5074. Note: θ is ellipticity. […]
CD spectroscopy was used to study the binding of ivermectin and GW5074 to PfIMPα, TgIMPα and MmIMPα, as previously described. CD spectra of the proteins at 0.1 mg/mL concentration were recorded from 200–260 nm using Jasco CD spectrometer (Jasco, Portland, OR, USA). CD spectra of the IMPαs were also measured in the presence of 30 µM and 80 µM concentrations of the ivermectin and GW5074 compounds. Percentage α-helix content was calculated from the ellipticity at 222 nm as described in [51]. […]

[8] = target: T3, PfIMPα; test: AlphaScreen inhibition of PfIMPα binding to TGS1-NLS-GFP
From the text: as §1, §2, §3

[9] = Plasmodium falciparum, 3D7, 72 h, 72 h, single typical experiment in duplicate, read-out: IC50, P. falciparum growth (Figure 6)
[10] = Plasmodium falciparum, 3D7, 72 h, asexual stages, 72 h, pooled mean ± SD (n = 3), read-out: IC50, inhibition of growth of P. falciparum parasites in culture
[11] = AlphaScreen, IMPα 5 nM, NLS 30 nM, pooled mean ± SEM (n = 3), read-out: IC50, inhibition of TgIMPα:SV40 T-ag NLS binding
[12] = single experiment of a series of 3, read-out: IC50, TgIMPα:T-ag-NLS-GFP (Figure 3)
[13] = AlphaScreen, IMPβ 30 nM, IMPα 30 nM, pooled mean ± SEM (n = 3), read-out: IC50, inhibition of TgIMPα:MmIMPβ1 binding
[14] = single experiment of a series of three, read-out: IC50, TgIMPα:MmIMPβ1 (Figure 4)
[15] = AlphaScreen, IMPβ 30 nM, IMPα 30 nM, pooled mean ± SEM (n = 3), read-out: IC50, inhibition of MmIMPα:MmIMPβ1 binding
[16] = single experiment of a series of three, read-out: IC50, MmIMPα:MmIMPβ1 (Figure 4)
[17] = AlphaScreen, IMPβ 30 nM, IMPα 30 nM, pooled mean ± SEM (n = 3), read-out: IC50, inhibition of PfIMPα:MmIMPβ1 binding
[18] = single experiment of a series of three, read-out: IC50, PfIMPα:MmIMPβ1 (Figure 4)
[19] = asexual stages, 72 h, pooled mean ± SD (n = 3), read-out: IC50, inhibition of growth of P. falciparum parasites in culture
[20] = AlphaScreen, IMPα 5 nM, NLS 30 nM, pooled mean ± SEM (n = 3), read-out: IC50, inhibition of ΔIBBmIMPα:SV40 T-ag NLS binding
[21] = single experiment of a series of 3, read-out: IC50, MmΔIBBIMPα:T-ag-NLS-GFP (Figure 3)
[22] = AlphaScreen, IMPα 5 nM, NLS 30 nM, pooled mean ± SEM (n = 3), read-out: IC50, inhibition of PfIMPα:TGS1 NLS binding
[23] = single experiment of a series of 3, read-out: IC50, PfIMPα:TGS1-NLS-GFP (Figure 3)

Compound: C[C@H]1[C@@H](O)O[C@@H]2O[C@@]3(C)CC[C@H]4[C@H](C)CC[C@@H]1[C@@]24OO3 [DHA, dihydroartemisinin]
- IC50 [1, 9]: 0.0007 µM
- IC50 [1, 10]: 0.001 ± 0.0005 µM
- IC50 ([1]; Plasmodium falciparum, 3D7, asexual stages, approximate value, read-out: IC50, P. falciparum growth): ~0.001 µM

Compound: O=C1Nc2ccc(I)cc2C1=Cc1cc(Br)c(O)c(Br)c1 [GW5074, 3-(3,5-dibromo-4-hydroxybenzyliden)-5-iodo-1,3-dihydroindol-2-one]
- IC50 [2, 11]: 7.7 ± 1.9 µM
- IC50 [2, 12]: 5.4 µM
- IC50 [3, 13]: 11 ± 1.5 µM
- IC50 [3, 14]: 13 µM
- IC50 [4, 15]: ~22 µM and 22 µM
- IC50 [4, 16]: 23 µM
- IC50 [5, 17]: 41 ± 1.5 µM
- IC50 [5, 18]: 39 µM
- IC50 [1, 9]: 6.5 µM
- IC50 [1, 10]: ~6 µM
- IC50 [1, 19]: 5.5 ± 0.9 µM
- IC50 [6, 20]: 4.9 ± 1.4 µM
- IC50 [6, 21]: 2.2 µM
- residual α-helicity of PfIMPα ([7]; 30 µM compound): 30%
- residual α-helicity of PfIMPα ([7]; 80 µM compound): below 10%
- IC50 [8, 22]: 6.5 ± 0.4 µM
- IC50 [8, 23]: 6 µM

Compound: ivermectin
- IC50 ([2]; AlphaScreen, IMPα 5 nM, NLS 30 nM, pooled mean ± SEM (n = 3), listed as ivermectin, read-out: IC50, inhibition of TgIMPα:SV40 T-ag NLS binding): 5 µM
- IC50 [2, 11]: 4.9 ± 0.2 µM
- IC50 [2, 12]: 5.2 µM
- IC50 ([3]; AlphaScreen, IMPβ 30 nM, IMPα 30 nM, pooled mean ± SEM (n = 3), listed as ivermectin, read-out: IC50, inhibition of TgIMPα:MmIMPβ1 binding): 2 to 7 µM
- IC50 [3, 13]: 6.9 ± 1.2 µM
- IC50 [3, 14]: 5.4 µM
- IC50 ([4]; AlphaScreen, IMPβ 30 nM, IMPα 30 nM, pooled mean ± SEM (n = 3), listed as ivermectin, read-out: IC50, inhibition of MmIMPα:MmIMPβ1 binding): ~3 µM
- IC50 [4, 15]: 3.1 ± 0.5 µM
- IC50 [4, 16]: 3.9 µM
- IC50 ([5]; AlphaScreen, IMPβ 30 nM, IMPα 30 nM, pooled mean ± SEM (n = 3), listed as ivermectin, read-out: IC50, inhibition of PfIMPα:MmIMPβ1 binding): 2 to 7 µM
- IC50 [5, 17]: 1.9 ± 0.2 µM
- IC50 [5, 18]: 1.5 µM
- IC50 ([1]; 72 h, single typical experiment in duplicate, read-out: IC50, P. falciparum growth (Figure 6)): 1 µM
- IC50 ([1]; asexual stages, 72 h, pooled mean ± SD (n = 3), listed as ivermectin, read-out: IC50, inhibition of growth of P. falciparum parasites in culture): ~1 µM
- IC50 [1, 19]: 0.7 ± 0.1 µM
- IC50 ([6]; AlphaScreen, IMPα 5 nM, NLS 30 nM, pooled mean ± SEM (n = 3), listed as ivermectin, read-out: IC50, inhibition of ΔIBBmIMPα:SV40 T-ag NLS binding): 5 to 6 µM
- IC50 [6, 20]: 6.2 ± 0.2 µM
- IC50 [6, 21]: 6.3 µM
- residual α-helicity of PfIMPα ([7]; 80 µM compound): ~20%
- IC50 [8, 22]: 5 ± 1.3 µM
- IC50 [8, 23]: 2.4 µM
